According to patent publication US11780839B2, “Compounds for treating Huntington's disease” (PTC THERAPEUTICS, INC., priority 2018, dated 2023):

The compounds below were run on Endogenous Huntingtin Protein (assay: Endogenous Huntingtin Protein Assay (ELISA-based Meso Scale Discovery electrochemiluminescence)). Conditions: MSD electrochemiluminescence, Table 1.
Assay type: cell-based
Outline: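 Huntingtin was captured overnight at 4 °C on plates coated with 1 μg/mL MW1 (polyQ-expanded) or MAB2166 antibody and BSA-blocked. Detection used a rabbit monoclonal and then a SULFO-TAG goat anti-rabbit antibody (0.25 μg/mL, 1 h each, room temperature). Signal was read by electrochemiluminescence.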

IC50 [nM]	Compound
100 to 500	Oc1cc(-c2cn[nH]c2)ccc1-c1cnc(N[C@H]2CCNC[C@H]2F)nn1 [Cpd 345, 2-(3-{[(3R,4S)-3-fluoropiperidin-4-yl]amino}-1,2,4-triazin-6-yl)-5-(1H-pyrazol-4-yl)phenol]
> 500	CN[C@@H]1CN(c2ncc(-c3ccc(-c4cn[nH]c4)cc3O)nn2)C[C@H]1OC [Cpd 346, 2-{3-[(3R,4R)-3-methoxy-4-(methylamino)pyrrolidin-1-yl]-1,2,4-triazin-6-yl}-5-(1H-pyrazol-4-yl)phenol]
≤ 100	CC(C)N[C@H]1CCN(c2ncc(-c3ccc(-c4cn[nH]c4)cc3O)nn2)C1 [Cpd 347, 2-(3-{(3S)-3-[(propan-2-yl)amino]pyrrolidin-1-yl}-1,2,4-triazin-6-yl)-5-(1H-pyrazol-4-yl)phenol]
100 to 500	Oc1cc(-c2cn[nH]c2)ccc1-c1cnc(N2CCC(NC34CC(C3)C4)C2)nn1 (stereo not drawn) [Cpd 349, 2-(3-{3-[(bicyclo[1.1.1]pentan-1-yl)amino]pyrrolidin-l-yl}-1,2,4-triazin-6-yl)-5-(1H-pyrazol-4-yl)phenol]
≤ 100	CNC1CCN(c2ncc(-c3ccc(-c4cnc(C)o4)cc3O)nn2)C1 (stereo not drawn) [Cpd 350, 2-{3-[3-(methylamino)pyrrolidin-l-yl]-1,2,4-triazin-6-yl}-5-(2-methyl-1,3-oxazol-5-yl)phenol]
≤ 100	CC1(C)CC(Nc2ncc(-c3ccc(-c4ncco4)cc3O)nn2)CC(C)(C)N1 [Cpd 352, 5-(1,3-oxazol-2-yl)-2-{3-[(2,2,6,6-tetramethylpiperidin-4-yl)amino]-1,2,4-triazin-6-yl}phenol]
1000 to 3000	Oc1cc(-c2cn[nH]c2)ccc1-c1cnc(N2CCC3(CNCCO3)C2)nn1 (stereo not drawn) [Cpd 353, 2-[3-(6-oxa-2,9-diazaspiro[4.5]decan-2-yl)-1,2,4-triazin-6-yl]-5-(1H-pyrazol-4-yl)phenol]
≤ 100	Oc1cc(-c2cn[nH]c2)ccc1-c1cnc(N2CCC3(CCNC3)C2)nn1 (stereo not drawn) [Cpd 354, 2-[3-(2,7-diazaspirol{4.4}nonan-2-yl)-1,2,4-triazin-6-yl]-5-(1H-pyrazol-4-yl)phenol]
≤ 100	CC(C)(C)N[C@H]1CCN(c2ncc(-c3ccc(-c4cn[nH]c4)cc3O)nn2)C1 [Cpd 355, 2-{3-[(3S)-3-(tert-butylamino)pyrrolidin-l-yl]-1,2,4-triazin-6-yl}-5-(1H-pyrazol-4-yl)phenol]
≤ 100	CC(C)(C)N[C@@H]1CCN(c2ncc(-c3ccc(-c4cn[nH]c4)cc3O)nn2)C1 [Cpd 356, 2-{3-[(3R)-3-(tert-butylamino)pyrrolidin-l-yl]-1,2,4-triazin-6-yl}-5-(1H-pyrazol-4-yl)phenol]
≤ 100	Oc1cc(-c2cn[nH]c2)ccc1-c1cnc(N2CCC(NC3CCCC3)C2)nn1 (stereo not drawn) [Cpd 357, 2-{3-[3-(cyclopentylamino)pyrrolidin-l-yl]-1,2,4-triazin-6-yl}-5-(1H-pyrazol-4-yl)phenol]
100 to 500	CNC1CCN(c2ncc(-c3ccc(-c4ncco4)cc3O)nn2)C1 (stereo not drawn) [Cpd 358, 2-{3-[3-(methylamino)pyrrolidin-l-yl]-1,2,4-triazin-6-yl}-5-(1,3-oxazol-2-yl)phenol]
≤ 100	CC1(C)CC(Nc2ncc(-c3ccc(-c4cn5ccncc5n4)cc3O)nn2)CC(C)(C)N1 [Cpd 359, 5-(imidazo[1,2-a]pyrazin-2-yl)-2-{3-[(2,2,6,6-tetramethylpiperidin-4-yl)amino]-1,2,4-triazin-6-yl}phenol]
100 to 500	CC1(C)CC(Nc2ncc(-c3ccc(-c4cn5ccccc5n4)cc3O)nn2)CC(C)(C)N1 [Cpd 360, 5-(imidazo[1,2-a]pyridin-2-yl)-2-{3-[(2,2,6,6-tetramethylpiperidin-4-yl)amino]-1,2,4-triazin-6-yl}phenol]
≤ 100	CC(C)NCC1CCN(c2ncc(-c3ccc(-c4cn[nH]c4)cc3O)nn2)C1 (stereo not drawn) [Cpd 361, 2-[3-(3-{[(propan-2-yl)amino]methyl}pyrrolidin-l-yl)-1,2,4-triazin-6-yl]-5-(1H-pyrazol-4-yl)phenol]
≤ 100	CC1(NC2CCN(c3ncc(-c4ccc(-c5cn[nH]c5)cc4O)nn3)C2)CCOCC1 (stereo not drawn) [Cpd 362, 2-(3-{3-[(4-methyloxan-4-yl)amino]pyrrolidin-l-yl}-1,2,4-triazin-6-yl)-5-(1H-pyrazol-4-yl)phenol]
≤ 100	CC(C)(C)NC1CCN(c2cnc(-c3ccc(-c4cn[nH]c4)cc3O)nn2)C1 (stereo not drawn) [Cpd 363, 2-{6-[3-(tert-butylamino)pyrrolidin-l-yl]-1,2,4-triazin-3-yl}-5-(1H-pyrazol-4-yl)phenol]
100 to 500	CNC1CCN(c2ncc(-c3ccc(-c4cc(SC)ncn4)cc3O)nn2)C1 (stereo not drawn) [Cpd 364, 2-{3-[3-(methylamino)pyrrolidin-l-yl]-1,2,4-triazin-6-yl}-5-[6-(methylsulfanyl)pyrimidin-4-yl]phenol]
≤ 100	CC(C)(C)NC1CCN(c2ncc(-c3ccc(-c4c[nH]nc4Cl)cc3O)nn2)C1 (stereo not drawn) [Cpd 365, 2-{3-[3-(tert-butylamino)pyrrolidin-l-yl]-1,2,4-triazin-6-yl}-5-(3-chloro-1H-pyrazol-4-yl)phenol]
≤ 100	[2H]C([2H])([2H])n1cc(-c2ccc(-c3cnc(N4CCC(NC(C)(C)C)C4)nn3)c(O)c2)cn1 (stereo not drawn) [Cpd 367, 2-{3-[3-(tert-butylamino)pyrrolidin-l-yl]-1,2,4-triazin-6-yl}-5-[1-(^2H3)methyl-1H-pyrazol-4-yl]phenol]
≤ 100	Oc1cc(-c2cn[nH]c2)ccc1-c1cnc(N2CCC3(CCCNC3)C2)nn1 (stereo not drawn) [Cpd 369, 2-[3-(2,7-diazaspiro[4.5]decan-2-yl)-1,2,4-triazin-6-yl]-5-(1H-pyrazol-4-yl)phenol]
≤ 100	Oc1cc(-c2cn[nH]c2)ccc1-c1cnc(N2CC3CCNC3C2)nn1 (stereo not drawn) [Cpd 370, 2-[3-(hexahydropyrrolo[3,4-b]pyrrol-5(1H)-yl)-1,2,4-triazin-6-yl]-5-(1H-pyrazol-4-yl)phenol]
≤ 100	OCCCNC1CCN(c2ncc(-c3ccc(-c4cn[nH]c4)cc3O)nn2)C1 (stereo not drawn) [Cpd 371, 2-(3-{3-[(3-hydroxypropyl)amino]pyrrolidin-1-yl}-1,2,4-triazin-6-yl)-5-(1H-pyrazol-4-yl)phenol]
≤ 100	Oc1cc(-c2cn[nH]c2)ccc1-c1cnc(N2CCC(CNC3CCOCC3)C2)nn1 (stereo not drawn) [Cpd 372, 2-[3-(3-{[(oxan-4-yl)amino]methyl}pyrrolidin-1-yl)-1,2,4-triazin-6-yl]-5-(1H-pyrazol-4-yl)phenol]
≤ 100	CC(C)(C)NC1CCN(c2cnc(-c3ccc(-c4c[nH]nc4F)cc3O)nn2)C1 (stereo not drawn) [Cpd 374, 2-{6-[3-(tert-butylamino)pyrrolidin-1-yl]-1,2,4-triazin-3-yl}-5-(3-fluoro-1H-pyrazol-4-yl)phenol]
≤ 100	Cc1n[nH]cc1-c1ccc(-c2cnc(N3CCC(NC(C)(C)C)C3)nn2)c(O)c1 (stereo not drawn) [Cpd 375, 2-{3-[3-(tert-butylamino)pyrrolidin-1-yl]-1,2,4-triazin-6-yl}-5-(3-methyl-1H-pyrazol-4-yl)phenol]
≤ 100	COc1cc(-c2cn[nH]c2)cc(O)c1-c1cnc(N2CCC(NC(C)(C)C)C2)nn1 (stereo not drawn) [Cpd 376, 2-{3-[3-(tert-butylamino)pyrrolidin-1-yl]-1,2,4-triazin-6-yl}-3-methoxy-5-(1H-pyrazol-4-yl)phenol]
≤ 100	[2H]C([2H])([2H])n1cc(-c2ccc(-c3cnc(N[C@H]4CC(C)(C)NC(C)(C)[C@H]4F)nn3)c(O)c2)cn1 [Cpd 377, 2-(3-{[(3S,4S)-3-fluoro-2,2,6,6-tetramethylpiperidin-4-yl]amino}-1,2,4-triazin-6-yl)-5-[1-(^2H3)methyl-1H-pyrazol-4-yl]phenol]

Compound	IC50 [nM]
CN(c1cnc(-c2ccc(-c3ccc4c(cnn4C)c3)cc2O)nn1)C1CC(C)(C)NC(C)(C)C1 [Cpd 342, 5-(1-methyl-1H-indazol-5-yl)-2-{6-[methyl(2,2,6,6-tetramethylpiperidin-4-yl)amino]-1,2,4-triazin-3-yl}phenol]	100 to 500
CN(c1cnc(-c2ccc(-c3ccn(C)n3)cc2O)nn1)C1CC(C)(C)NC(C)(C)C1 [Cpd 343, 5-(1-methyl-1H-pyrazol-3-yl)-2-{6-[methyl(2,2,6,6-tetramethylpiperidin-4-yl)amino]-1,2,4-triazin-3-yl}phenol]	≤ 100
CN(c1ncc(-c2ccc(-c3cc(C#N)c4nccn4n3)cc2O)nn1)C1CC(C)(C)NC(C)(C)C1 [Cpd 344, 6-(3-hydroxy-4-{3-[methyl(2,2,6,6-tetramethylpiperidin-4-yl)amino]-1,2,4-triazin-6-yl}phenyl)imidazo[1,2-b]pyridazine-8-carbonitrile]	≤ 100
CC(C)N[C@@H]1CCN(c2ncc(-c3ccc(-c4cn[nH]c4)cc3O)nn2)C1 [Cpd 348, 2-(3-{(3R)-3-[(propan-2-yl)amino]pyrrolidin-l-yl}-1,2,4-triazin-6-yl)-5-(1H-pyrazol-4-yl)phenol]	≤ 100
CN(c1ncc(-c2ccc(-c3cc(CN)c4nccn4n3)cc2O)nn1)C1CC(C)(C)NC(C)(C)C1 [Cpd 351, 5-[8-(aminomethyl)imidazo[1,2-b]pyridazin-6-yl]-2-{3-[methyl(2,2,6,6-tetramethylpiperidin-4-yl)amino]-1,2,4-triazin-6-yl}phenol]	≤ 100
CC(C)(C)NC1CCN(c2ncc(-c3ccc(-c4c[nH]nc4C#N)cc3O)nn2)C1 (stereo not drawn) [Cpd 366, 4-(4-{3-[3-(tert-butylamino)pyrrolidin-l-yl]-1,2,4-triazin-6-yl]-3-hydroxyphenyl)-1H-pyrazole-3-carbonitrile]	≤ 100
CN(c1ncc(-c2ccc(-c3ccn(C)n3)c(O)c2O)nn1)C1CC(C)(C)NC(C)(C)C1 [Cpd 368, 3-(1-methyl-1H-pyrazol-3-yl)-6-{3-[methyl(2,2,6,6-tetramethylpiperidin-4-yl)amino]-1,2,4-triazin-6-yl}benzene-1,2-diol]	100 to 500
[2H]C([2H])([2H])n1cc(-c2ccc(-c3cnc(NC4CC(C)(C)NC(C)(C)C4)nn3)c(O)c2)cn1 [Cpd 373, 5-[1-(^2H3)methyl-1H-pyrazol-4-yl]-2-{3-[(2,2,6,6-tetramethylpiperidin-4-yl)amino]-1,2,4-triazin-6-yl}phenol]	≤ 100
